Data taken from patent publication US6638938B1, “Method for preventing tissue injury from hypoxia” (Cell Therapeutics, Inc., priority 1993, dated 2003).

Tests used:
[1] = system: LPAAT (lysophosphatidic acyltransferase); assay: inhibition of LPAAT activity; type: biochemical; settings: LPAAT activated by IL-1
[2] = serum level of Lisofylline in hemorrhaged mice; type: in vivo; settings: male, mouse, intravenous, hemorrhaged Balb/C mice, 5 minutes after 100 mg/kg Lisofylline given with resuscitation blood, read-out: serum levels of Lisofylline
Procedure: (§1) This example illustrates a study of Lisofylline in a murine hemorrhage and resuscitation model. Male Balb/C mice, 8-12 weeks of age, were obtained from Harlan-Sprague Dawley (Indianapolis, Ind.). The animals were kept on a 12 hour light/dark cycle with free access to food and water. With this model, 30% of the calculated blood volume (approximately 0.55 ml for a 20 gram mouse) was withdrawn from a methoxyflurane anesthetized mouse by cardiac puncture over a 60-second period. The blood was collected into a heparinized syringe (5 units heparin), kept at 37° C. for one hour, then reinfused into the mouse through a retroorbital plexus injection. Using this method, one is able to resuscitate all hemorrhaged mice without complication. The total period of methoxyflurane anesthesia is less than 2 minutes in all cases. The mortality rate with this hemorrhage protocol is approximately 12%, with all deaths occurring over the 24 hours post hemorrhage, and most deaths occurring within the one hour post hemorrhage.
Mice were treated with 100 mg/kg Lisofylline in 0.2 ml PBS and given initially i.v., by retroorbital injection, then i.p. every 8 hours for a total of 9 doses. In hemorrhaged mice, the Lisofylline in PBS was added to the shed blood, and then given retroorbitally with the blood during the resuscitation phase. […]

IFN-γ = IFN-γ sandwich ELISA of BAL supernatants and plasma; type: in vivo, Balb/C mice
Procedure: as §1
Mice were treated with 100 mg/kg Lisofylline in 0.2 ml PBS and given initially i.v., by retroorbital injection, then i.p. every 8 hours for a total of 9 doses. In hemorrhaged mice, the Lisofylline in PBS was added to the shed blood, and then given retroorbitally with the blood during the resuscitation phase. In hemorrhaged Balb/C mice (n=3), sacrificed by exsanguination 5 minutes after receiving Lisofylline with the blood used for resuscitation, serum levels of Lisofylline were 44±6 μg/ml.
Three days following hemorrhage and resuscitation or the initiation of treatment with Lisofylline therapy in normal treated animals, mice were anesthetized with methoxyflurane and sacrificed by exsanguination through cardiac puncture into a heparinized (5 U) syringe. Normal mice, not subjected to hemorrhage/resuscitation or to treatment with Lisofylline, were included. Bronchoalveolar lavage (BAL) specimens, using 1.0 ml PBS injected and aspirated three times into the trachea and lungs, were obtained. Cells contained in the BAL were collected by centrifugation of BAL specimens. […] As determined by cytology, there was less than 3% contamination of alveolar macrophages with lymphocytes, neutrophils, or other mononuclear cell populations when BAL specimens are collected in normal Balb/C mice, but approximately 11±2% of isolated cells are neutrophils in mice subjected 3 days previously to 30% blood volume hemorrhage with resuscitation one hour later. […]
TNFα and IFN-γconcentrations in BAL supernatants and plasma were determined with sandwich ELISA assays using the monoclonal antibody pairs (i.e., unbiotinylated or biotinylated) MP6-XT3 for TNFα and XMG1.2 for IFN-γ(Pharmingen San Diego, Calif.). […]

human neutrophils = assay: neutrophil superoxide anion production (cytochrome c reduction); type: cell-based
Text: Human recombinant interleukin-1α (IL-1) was obtained from Hoffmann-LaRoche, Inc. (Nutley, N.J.), frozen inaliquots and thawed daily for use. Ketamine hydrochloride was obtained from Parke-Davis (Morris Plains, N.J.), xylazine from Haver (New York, N.J.), ^125I labeled bovine serum albumin (BSA) from ICN Radiochemicals (Irvine, Calif.), and heparin sodium from Elkins-Sinn, Inc. (Cherry Hill, N.J.). All other reagents were purchased from Sigma Chemical Co. (St. Louis, Mo.). Neutrophils were purified from human blood by well described methods. Venous blood was anticoagulated with heparin and the cellular elements were separated from platelet-rich plasma by centrifugation. Cell pellets were resuspended in platelet-poor plasma and diluted 1:4 with 6% dextran (Pharmacia Fine Chemicals, Piscataway, N.J.) in saline. Red cells were separated from leukocytes by sedimentation. Leukocyte-rich supernatants were then aspirated, underlain with Ficoll-Hypaque (Pharmacia Fine Chemicals), and centrifuged at 275×g to separate neutrophils and monocytes. Sedimented neutrophils were resuspended in Hank's balanced salt solution (HBSS). These preparations contained 94 to 96% neutrophils and 4 to 6% monocytes. All values were compared by analysis of variance and corrected by post hoc Student t tests for differences between groups. A p value of <0.05 was considered significant.
Release of superoxide anion by neutrophils was determined spectrophotometrically by measuring superoxide dismutase (SOD) inhibitable reduction of horse heart ferricytochrome C (Sigma Chemical Co., St. Louis, Mo.). Briefly, neutrophils (2×10^6) were placed in tubes containing HBSS (sufficient quantity to 2.0 ml), pooled human serum (1%), and SOD (2.98 mg) with and without Lisofylline. These mixtures were divided in half, and one part was incubated at 37° C. and one part at 4° C. After incubation, reaction mixtures were kept at 4° C. and centrifuged at 800×g for 15 min. Absorbance for paired supernatants was measured at 550 nm using a spectrophotometer (Model 35; Beckman Instruments, Inc., Fullerton, Calif.), averaged, and expressed at nanomoles of SOD-inhibitable cytochrome C reduced/20 min. In some experiments, neutrophils were incubated with PMA.
Neutrophil chemotactic activity was determined by Boyden chamber assay and quantitated as the number of migrating PMN/5HPF using zymosan-activated serum (ZAS) as the chemoattractant (Repine et al., J. Reticuloendo. Soc. 24:217, 1978). Neutrophil adherence was assessed by quantitating the percentage of neutrophils adhering to nylon fibers following addition of phorbol myristate acetate (PMA 10-^6M, Sigma) (Rasp et al., J. Reticuloendo. Soc. 25:101, 1979). Neutrophil superoxide production was determined by quantitating superoxide dismutase inhibitable reduction of cytochrome c in response to PMA (10^−6 M) (Berger et al., J. Infectious Dis. 149:413, 1984).

PA and DAG generation = settings: cited from earlier work
[3] = hemorrhaged/resuscitated mice treated for 72 hours
[4] = normal, unhemorrhaged mice treated

C[C@@H](O)CCCCn1c(=O)c2c(ncn2C)n(C)c1=O [Lisofylline, 1-R-(5-hydroxyhexyl)-3,7-dimethylxanthine]
mode of LPAAT inhibition [1]: direct inactivator and competitive inhibitor | concentration at 5 min [2]: 44000 ± 6000 ng/mL | IFN-γ levels in BAL supernatants (IFN-γ; [3]): 2 ± 2 pg/mL | IFN-γ levels in plasma (IFN-γ; [3]): 173 ± 120 pg/mL | IFN-γ content of BAL supernatants (IFN-γ; [4]): 16 ± 16 pg/mL | IFN-γ in plasma (IFN-γ; [4]): 66 ± 48 pg/mL | Neutrophil Superoxide Production in vitro (human neutrophils; Neutrophils + PMA + Lisofylline 0.7 μM): 9.2 ± 7.8 (4) μM cyto c reduced/30 min | Neutrophil Superoxide Production in vitro (human neutrophils; Neutrophils + PMA + Lisofylline 7 μM): 82.3 ± 5.2 (4) μM cyto c reduced/30 min | Neutrophil Superoxide Production in vitro (human neutrophils; Neutrophils + PMA + Lisofylline 70 μM): 80.6 ± 5.2 (4) μM cyto c reduced/30 min | Neutrophil Superoxide Production in vitro (human neutrophils; Neutrophils + PMA + Lisofylline 700 μM): 92.0 ± 1.1 (4) μM cyto c reduced/30 min | neutrophil superoxide anion generation (human neutrophils; PMA 10^-6 M, in vitro, whether reduced): not | concentrations at which Lisofylline effectively inhibits PA synthesis (PA and DAG generation): 10 to 30 µM
